Each molecule was assayed on Candida albicans (assay: in vivo protection of mice inoculated with Candida albicans (PD50)). Settings: Candida albicans, 48 h, vs. Candida albicans in mice; dose giving 50% protection against lethal effect of the infection, 48 hours observation; route not given.
Procedure: The in vivo evaluation of the compounds can be carried out at a series of dose levels by intraperitoneal or intravenous injection or by oral administration, to mice which are inoculated with a strain of Candida albicans. Activity is based on the survival of a treated group of mice after the death of an untreated group of mice following 48 hours observation.- The dose level at which the compound provides 50% protection (PD50) against the lethal effect of the infection is noted. Using the test method described in the text, the following PD50 values were obtained vs. Candida albicans in mice:-
CC(C)(n1cncn1)C(O)(c1ccc(Cl)cc1)c1ccc(Cl)cc1 [Example 3] was tested, and the ED50 was < 1 mg/kg. For CC(C)(n1cncn1)C(O)(c1ccc(F)cc1)c1ccc(F)cc1 [Example 6, 1,1-Bis(4-fluorophenyl)-2-methyl-2-(1H-1,2,4-triazol-1-yl)propan-l-ol], the ED50 was 1.6 mg/kg. With CC(C)(n1cncn1)C(O)(c1ccc(F)cc1)c1ccc(F)cc1F (racemic) [Example 5] the ED50 was 2.2 mg/kg. For CC(n1cncn1)C(O)(c1ccc(F)cc1)c1ccc(F)cc1F (single isomer, unassigned) [Example 2], the ED50 was < 1 mg/kg. With OC(c1ccc(F)cc1F)(c1ccc(F)cc1F)C(F)n1cncn1 (racemic) [Example 11] the ED50 was < 1 mg/kg. For CC(C)(n1cncn1)C(O)(c1ccc(Cl)cc1)c1ccc(F)cc1F (racemic) [Example 4], the ED50 was 2.3 mg/kg. CC(F)(n1cncn1)C(O)(c1ccc(Cl)cc1)c1ccc(F)cc1F (stereo not drawn) [Example 1, 1-(4-Chlorophenyl)-1-(2,4-difluorophenyl)-2-fluoro-2-(1H-3,2,4-triazol-1-yl)propan-1-ol] gave an ED50 of 0.95 mg/kg. OC(c1ccc(F)cc1)(c1ccc(F)cc1)C(F)n1cncn1 (stereo not drawn) [Example 8, 2-Fluoro-1,1-di-(4-fluorophenyl)-2-(1,2,4-triazol-1-yl)ethanol] gave an ED50 of 0.3 mg/kg. Molecule OC(c1ccc(Cl)cc1)(c1ccc(Cl)cc1Cl)C(F)n1cncn1 (single isomer, unassigned) [Example 10] has an ED50 of 3.2 mg/kg. OC(c1ccc(F)cc1)(c1ccc(Cl)cc1Cl)C(F)n1cncn1 (single isomer, unassigned) [Example 9 (diastereomer I)] showed an ED50 of 0.3 mg/kg.

Same assay, conditions: vs. Candida albicans in mice; dose giving 50% protection against lethal effect of the infection, 48 hours observation; route not given; 2880 min
In the case of OC(c1ccc(F)cc1)(c1ccc(F)cc1)C(F)n1cncn1 (single isomer, unassigned) [Example 12(+)], the PD50 is reported as 0.75 mg/kg. For OC(c1ccc(Cl)cc1)(c1ccc(F)cc1F)C(F)n1cncn1 (single isomer, unassigned) [Example 7 (diastereomer II), 1-(4-Chloroghenyl)-1-(2,4-difiuorophenyl)-2-fiuoro-2-(1H-1,2,4-triazol-l-yl)-ethanol], the PD50 was 0.3 mg/kg. OC(c1ccc(F)cc1)(c1ccc(F)cc1)C(F)n1cncn1 (single isomer, unassigned) [Example 12(-)] was tested, and the PD50 was 0.2 mg/kg. For OC(c1ccc(Cl)cc1)(c1ccc(F)cc1F)C(F)n1cncn1 (single isomer, unassigned) [Example 7 (diastereomer I), 1-(4-Chloroghenyl)-1-(2,4-difiuorophenyl)-2-fiuoro-2-(1H-1,2,4-triazol-l-yl)-ethanol], the PD50 was 1.6 mg/kg. With OC(c1ccc(F)cc1)(c1ccc(Cl)cc1Cl)C(F)n1cncn1 (single isomer, unassigned) [Example 9 (diastereomer II)] the PD50 was 0.5 mg/kg.

Source: patent publication EP0153803A2, “Triazole antifungal agents” (Pfizer Limited, priority 1984, dated 1985)
